Measured values published in patent US20240166652A1, “MODULATORS OF THE INTEGRATED STRESS PATHWAY” (Calico Life Sciences LLC, priority 2017, published 2024).

test system: ATF4 luciferase reporter in HEK293T cells; assay: ATF4-Luc assay (ATF4 luciferase reporter, tunicamycin-treated HEK293T cells); assay type: cell-based, human; details: Homo sapiens, HEK-293T; HEK293T cells carrying the ATF4 luciferase reporter, 1 μg/mL tunicamycin, 7 hours

Structure (SMILES) | EC50
O=C(COc1ccc(Cl)c(F)c1)NC12CCC(NC(=O)COc3cccnn3)(CC1)[C@@H](O)C2 [Compound 806, 2-(4-chloro-3-fluorophenoxy)-N-[(3S)-3-hydroxy-4-{2-[(pyridazin-3-yl)oxy]acetamido}bicyclo[2.2.2]octan-1-yl]acetamide] | 500 to 2000 nM
O=C(COc1ccc(Cl)c(F)c1)NC12CC(NS(=O)(=O)Cc3cc(F)cc(F)c3)(C1)C2 [Compound 484, 2-(4-chloro-3-fluorophenoxy)-N-(3-{[(3,5-difluorophenyl)methanesulfonyl]amino}bicyclo[1.1.1]pentan-1-yl)acetamide] | > 2000 nM
Cc1cc(OCC(=O)NC23CCC(NC(=O)COc4ccc(Cl)c(Cl)c4)(CC2)[C@@H](O)C3)no1 [Compound 664, 2-(3,4-dichlorophenoxy)-N-[(2S)-2-hydroxy-4-{2-[(5-methyl-1,2-oxazol-3-yl)oxy]acetamido}bicyclo[2.2.2]octan-1-yl]acetamide] | 10 to 50 nM
O=C(COc1ccc(Cl)cc1)NC12CCC(NC(=O)COc3ccc(OC(F)(F)F)c(F)c3)(CC1)CC2 [Compound 741, 2-(4-chlorophenoxy)-N-(4-{2-[3-fluoro-4-(trifluoromethoxy)phenoxy]acetamido}bicyclo[2.2.2]octan-1-yl)acetamide] | 10 to 50 nM
O=C(COc1ccc(Cl)cc1)NC12CCC(NC(=O)COc3cc(F)c4cn[nH]c4c3)(CC1)CC2 [Compound 739, 2-(4-chlorophenoxy)-N-(4-{2-[(4-fluoro-1H-indazol-6-yl)oxy]acetamido}bicyclo[2.2.2]octan-1-yl)acetamide] | < 10 nM
O=C(COc1ccc(Cl)c(F)c1)NC12CCC(NC(=O)Cc3cccc(OC(F)(F)F)c3)(CC1)C(O)C2 (stereo not drawn) [Compound 327, 2-(4-chloro-3-fluorophenoxy)-N-(3-hydroxy-4-{2-[3-(trifluoromethoxy)phenyl]acetamido}bicyclo[2.2.2]octan-1-yl)acetamide] | > 2000 nM
Cc1cc(OCC(=O)NC23CCC(NC(=O)COc4ccc(F)c(F)c4)(CC2)[C@@H](O)C3)ccc1F [Compound 815, 2-(3,4-difluorophenoxy)-N-{(2S)-4-[2-(4-fluoro-3-methylphenoxy)acetamido]-2-hydroxybicyclo[2.2.2]octan-1-yl}acetamide] | < 10 nM
Cc1ccc(OCC(=O)NC23CCC(NC(=O)COc4ccc(Cl)c(F)c4)(CC2)[C@@H](O)C3)cc1 [Compound 475, 2-(4-chloro-3-fluorophenoxy)-N-{(2S)-2-hydroxy-4-[2-(4-methylphenoxy)acetamido]bicyclo[2.2.2]octan-1-yl}acetamide] | < 10 nM
Cc1noc(C)c1-c1cc(OCC(=O)NC23CC(NC(=O)COc4ccc(Cl)c(F)c4)(C2)C3)ccc1Cl [Compound 261, 2-[4-chloro-3-(3,5-dimethyl-1,2-oxazol-4-yl)phenoxy]-N-{3-[2-(4-chloro-3-fluorophenoxy)acetamido]bicyclo[1.1.1]pentan-1-yl}acetamide] | 10 to 50 nM
Cn1cc(OCC(=O)NC23CCC(NC(=O)COc4ccccn4)(CC2)C[C@@H]3O)cn1 [Compound 661, N-[(2S)-2-hydroxy-4-{2-[(pyridin-2-yl)oxy]acetamido}bicyclo[2.2.2]octan-1-yl]-2-[(1-methyl-1H-pyrazol-4-yl)oxy]acetamide] | > 2000 nM
O=C(COc1ccc(Cl)c(F)c1)NC12CCC(NC(=O)COc3cccc(C(F)(F)F)c3)(CC1)[C@@H](O)C2 [Compound 501, 2-(4-chloro-3-fluorophenoxy)-N-[(3S)-3-hydroxy-4-{2-[3-(trifluoromethyl)phenoxy]acetamido}bicyclo[2.2.2]octan-1-yl]acetamide] | < 10 nM
O=C(COc1ccc(Cl)c(F)c1)NC12CCC(OCCc3ccc(Cl)cc3)(CC1)CC2O (stereo not drawn) [Compound 611, 2-(4-chloro-3-fluorophenoxy)-N-{4-[2-(4-chlorophenyl)ethoxy]-2-hydroxybicyclo[2.2.2]octan-1-yl}acetamide] | 10 to 50 nM
O=C(COc1ccc(Cl)c(CO)c1)NC12CC(NC(=O)COc3ccc4c(c3)OC(F)(F)O4)(C1)C2 [Compound 276, 2-[4-chloro-3-(hydroxymethyl)phenoxy]-N-(3-{2-[(2,2-difluoro-2H-1,3-benzodioxol-5-yl)oxy]acetamido}bicyclo[1.1.1]pentan-1-yl)acetamide] | 10 to 50 nM
O=C(COc1ccc(Cl)c(F)c1)NC12CC(NC(=O)Cc3cccc(OC(F)(F)F)c3)(C1)C2 [Compound 361, 2-(4-chloro-3-fluorophenoxy)-N-(3-{2-[3-(trifluoromethoxy)phenyl]acetamido}bicyclo[1.1.1]pentan-1-yl)acetamide] | > 2000 nM
Cc1cccc(CCOCC(=O)NC23CC(NC(=O)COc4ccc(Cl)c(F)c4)(C2)C3)c1 [Compound 136, 2-(4-chloro-3-fluorophenoxy)-N-(3-{2-[2-(3-methylphenyl)ethoxy]acetamido}-bicyclo[1.1.1]pentan-1-yl)acetamide] | 250 to 500 nM
O=C(CO)NC(COC(=O)NC12CC(NC(=O)COc3ccc(Cl)c(F)c3)(C1)C2)c1ccc(Cl)cc1 (stereo not drawn) [Compound 791, 2-(4-chlorophenyl)-2-(2-hydroxyacetamido)ethyl {3-[2-(4-chloro-3-fluorophenoxy)acetamido]bicyclo[1.1.1]pentan-1-yl}carbamate] | > 2000 nM
O=C(COc1cc(F)c2cn[nH]c2c1)NC12CCC(NC(=O)COc3ccc(C(F)(F)F)nc3)(CC1)[C@@H](O)C2 [Compound 720] | < 10 nM

Structure (SMILES) | EC50
O=C(COc1cccc(F)c1)NC12CCC(NC(=O)COc3cccc(F)c3)(CC1)[C@@H](O)C2 [Compound 549, N,N′-[(2S)-2-hydroxybicyclo[2.2.2]octane-1,4-diyl]bis[2-(3-fluorophenoxy)acetamide]] | 50 to 250 nM
O=C(COc1ccc(F)c(Cl)c1)NC12CC(NC(=O)COc3ccc(F)c(Cl)c3)(C1)C2 [Compound 547, N,N′-(bicyclo[1.1.1]pentane-1,3-diyl)bis[2-(3-chloro-4-fluorophenoxy)acetamide]] | < 10 nM
COc1cc(OCC(=O)NC23CCC(NC(=O)COc4ccc(Cl)c(F)c4)(CC2)[C@@H](O)C3)ccc1Cl [Compound 465, 2-(4-chloro-3-fluorophenoxy)-N-{(2S)-4-[2-(4-chloro-3-methoxyphenoxy)acetamido]-2-hydroxybicyclo[2.2.2]octan-1-yl}acetamide] | < 10 nM
O=C(COc1ccc(Cl)cc1)NC12CCC(NC(=O)COc3ccc(Cl)cc3)(C1)C2 [Compound 176, N,N′-(bicyclo[2.1.1]hexane-1,4-diyl)bis[2-(4-chlorophenoxy)acetamide]] | 10 to 50 nM
Cc1cccc(OCC(=O)NC23CCC(NC(=O)COc4ccc(Cl)c(F)c4)(CC2)C[C@@H]3O)c1 [Compound 509, 2-(4-chloro-3-fluorophenoxy)-N-{(3S)-3-hydroxy-4-[2-(3-methylphenoxy)acetamido]bicyclo[2.2.2]octan-1-yl}acetamide] | < 10 nM
O=C(COc1ccc(F)c(C(F)F)c1)NC12CCC(NC(=O)COc3ccc(Cl)cc3)(CC1)[C@@H](O)C2 [Compound 774, 2-(4-chlorophenoxy)-N-[(2S)-4-{2-[3-(difluoromethyl)-4-fluorophenoxy]acetamido}-2-hydroxybicyclo[2.2.2]octan-1-yl]acetamide] | < 10 nM
O=C(COc1ccc(Cl)c(F)c1)NC12CC(NC(=O)COc3cnc(C(F)(F)F)cn3)(C1)C2 [Compound 107, 2-(4-chloro-3-fluorophenoxy)-N-[3-(2-{[5-(trifluoromethyl)pyrazin-2-yl]oxy}acetamido)bicyclo[1.1.1]pentan-1-yl]acetamide] | 50 to 250 nM
O=C(COc1ccc(Cl)c(F)c1)N[C@]12CC[C@](NC(=O)COc3ccc(Cl)c(F)c3)(C[C@@H]1O)[C@@H](O)C2 (racemic) [Compound 560, rac-N,N′-[(1S,2S,4S,5S)-2,5-dihydroxybicyclo[2.2.2]octane-1,4-diyl]bis[2-(4-chloro-3-fluorophenoxy)acetamide]] | < 10 nM
Cc1cc(OCC(=O)NC23CC(NC(=O)COc4ccc(Cl)c(F)c4)(C2)C3)cnc1C [Compound 234, 2-(4-chloro-3-fluorophenoxy)-N-(3-{2-[(5,6-dimethylpyridin-3-yl)oxy]acetamido}bicyclo[1.1.1]pentan-1-yl)acetamide] | 50 to 250 nM
Cc1ccc(CCOCC(=O)NC23CC(NC(=O)COc4ccc(Cl)c(F)c4)(C2)C3)cc1 [Compound 137, 2-(4-chloro-3-fluorophenoxy)-N-(3-{2-[2-(4-methylphenyl)ethoxy]acetamido}-bicyclo[1.1.1]pentan-1-yl)acetamide] | 500 to 2000 nM
O=C(COc1ccc(C(F)(F)F)cc1)NC12CCC(NC(=O)COc3ccc(C(F)(F)F)cc3)(CC1)[C@@H](O)C2 [Compound 536, N,N′-[(2S)-2-hydroxybicyclo[2.2.2]octane-1,4-diyl]bis{2-[4-(trifluoromethyl)phenoxy]acetamide}] | < 10 nM
O=C(COc1ccc(Cl)c(Cl)c1)NC12CCC(NC(=O)COc3ccc(Cl)c(F)c3)(CC1)[C@@H](O)C2 [Compound 438, 2-(4-chloro-3-fluorophenoxy)-N-{(2S)-4-[2-(3,4-dichlorophenoxy)acetamido]-2-hydroxybicyclo[2.2.2]octan-1-yl}acetamide] | < 10 nM
O=C(COc1ccc(Cl)c(F)c1)NC12CC(NC(=O)Cc3cccnc3)(C1)C2 [Compound 458, 2-(4-chloro-3-fluorophenoxy)-N-{3-[2-(pyridin-3-yl)acetamido]bicyclo[1.1.1]pentan-1-yl}acetamide] | > 2000 nM
CN(C(=O)COc1ccc(Cl)c(Cl)c1)C12CC(NC(=O)COc3ccc(F)c(Cl)c3)(C1)C2 [Compound 197, N-{3-[2-(3-chloro-4-fluorophenoxy)acetamido]bicyclo[1.1.1]pentan-1-yl}-2-(3,4-dichlorophenoxy)-N-methylacetamide] | 50 to 250 nM
O=C(COc1ccc(Cl)c(F)c1)N[C@@H]1C[C@@H]2C[C@H]1C[C@H]2NC(=O)COc1ccc(Cl)c(F)c1 (single isomer, unassigned) [Compound 621] | < 10 nM
CC(C)c1ccc(OCC(=O)NC23CC(NC(=O)COc4ccc(Cl)c(F)c4)(C2)C3)cn1 [Compound 248, 2-(4-chloro-3-fluorophenoxy)-N-[3-(2-{[6-(propan-2-yl)pyridin-3-yl]oxy}acetamido)bicyclo[1.1.1]pentan-1-yl]acetamide] | 50 to 250 nM
